From ChEMBL document CHEMBL1201862, “PubChem BioAssay data set” (2004)
Structures can show the parent of a compound that is named as a salt. Calls of active or inactive are those of the source.

Legend:
[1] = target: Hexokinase (Trypanosoma brucei, UniProt Q38C41); experiment: Confirmation assay for inhibitors of Trypanosoma brucei hexokinase 1-Analogue-first series. [Related pubchem assays (depositor defined):AID1430, AID1632, AID2516, AID2560, AID2579, AID2600, AID449725, AID492951]; type: functional
[2] = target: Heat shock protein HSP 90-alpha (Homo sapiens, UniProt P07900); type: functional, organism-based
[3] = target: Genome polyprotein (dengue virus type 2, UniProt P29990); experiment: Dengue-2 NS5 methyltransferase inhibitors, primary screen, biochemical, confirmation dose response (AID 588689); type: functional
[4] = polyadenylation inhibitors in yeast reporter, dose response, luminescence, S. cerevisiae SKY197-pL101 (AID 2525); type: functional, cell-based
[5] = Luminescence Cell-Based Dose Confirmation HTS to Identify Inhibitors of Polyadenylation.; type: functional
[6] = target: T1, Microphthalmia-associated transcription factor (Homo sapiens, UniProt O75030); experiment: TRPM1 promoter luciferase signal decrease, dose response, MITF inhibitor project, cell-based, SK-MEL-5, cherry-picked, set 3 (AID 493073); type: functional
T1 sequence (O75030 whole entry): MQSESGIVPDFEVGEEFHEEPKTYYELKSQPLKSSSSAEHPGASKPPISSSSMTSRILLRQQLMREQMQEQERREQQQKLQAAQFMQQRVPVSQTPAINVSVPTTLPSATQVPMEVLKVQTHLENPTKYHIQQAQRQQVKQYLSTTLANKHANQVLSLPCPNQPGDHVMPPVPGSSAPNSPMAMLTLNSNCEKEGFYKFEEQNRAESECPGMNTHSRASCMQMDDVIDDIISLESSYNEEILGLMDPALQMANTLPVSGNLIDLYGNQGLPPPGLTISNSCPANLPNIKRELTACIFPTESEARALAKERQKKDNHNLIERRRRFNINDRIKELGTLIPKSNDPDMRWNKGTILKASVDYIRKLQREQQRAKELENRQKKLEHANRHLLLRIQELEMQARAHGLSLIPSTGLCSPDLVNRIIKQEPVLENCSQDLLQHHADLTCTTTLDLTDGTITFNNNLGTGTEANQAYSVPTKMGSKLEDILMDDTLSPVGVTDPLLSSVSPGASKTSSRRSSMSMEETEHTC

[7] = target: Polyadenylate-binding protein 1 (Homo sapiens, UniProt P11940); experiment: PABP inhibition in translation initiation, SAR follow-up (AID 435018); type: functional
[8] = target: Eukaryotic translation initiation factor 4H (Homo sapiens, UniProt Q15056); experiment: eIF4H inhibition in translation initiation, SAR follow-up (AID 435011); type: functional
[9] = target: Cytochrome P450 2C9 (Homo sapiens, UniProt P11712); conditions: Potency
[10] = target: Aspartyl aminopeptidase (Plasmodium falciparum 3D7, UniProt Q8I2J3)
[11] = target: Procathepsin L (Homo sapiens, UniProt P07711)
[12] = target: T2, Dual specificity protein phosphatase 6 (Rattus norvegicus, UniProt Q64346); type: functional
T2 sequence (Q64346 whole entry): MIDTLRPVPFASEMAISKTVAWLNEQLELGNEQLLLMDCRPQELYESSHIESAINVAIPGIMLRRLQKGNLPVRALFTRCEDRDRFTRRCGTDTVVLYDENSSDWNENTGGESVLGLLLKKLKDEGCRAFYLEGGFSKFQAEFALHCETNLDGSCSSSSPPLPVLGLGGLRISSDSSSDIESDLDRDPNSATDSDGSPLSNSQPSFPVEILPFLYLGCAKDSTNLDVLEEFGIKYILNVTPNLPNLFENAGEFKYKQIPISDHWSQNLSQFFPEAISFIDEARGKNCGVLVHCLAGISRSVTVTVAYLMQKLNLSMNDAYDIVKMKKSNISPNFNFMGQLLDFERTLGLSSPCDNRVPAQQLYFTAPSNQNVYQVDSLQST

[13] = target: Glyceraldehyde-3-phosphate dehydrogenase (Homo sapiens, UniProt P04406)
[14] = target: T3, Tyrosine-protein phosphatase non-receptor type 7 (Homo sapiens, UniProt P35236); type: functional
T3 sequence (P35236 whole entry): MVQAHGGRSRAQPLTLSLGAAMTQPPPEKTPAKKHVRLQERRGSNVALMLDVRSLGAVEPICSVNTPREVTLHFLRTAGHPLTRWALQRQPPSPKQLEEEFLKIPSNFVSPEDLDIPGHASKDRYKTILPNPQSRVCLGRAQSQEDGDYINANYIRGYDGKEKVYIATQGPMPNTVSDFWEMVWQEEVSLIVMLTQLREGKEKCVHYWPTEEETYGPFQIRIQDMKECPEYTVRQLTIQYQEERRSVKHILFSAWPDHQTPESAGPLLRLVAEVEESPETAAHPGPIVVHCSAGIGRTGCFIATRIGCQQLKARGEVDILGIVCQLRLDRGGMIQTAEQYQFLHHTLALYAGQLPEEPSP

[15] = target: T2, Dual specificity protein phosphatase 6
[16] = Luminescence Cell-Based Dose Retest to Confirm Inhibitors of Cancer Stem Cells. [Related pubchem assays (depositor defined):AID2717, AID2721]; type: functional; conditions: Homo sapiens
[17] = target: Intestinal-type alkaline phosphatase (Homo sapiens, UniProt P09923); experiment: Dose Response confirmation of uHTS hits from a small molecule inhibitors of human intestinal alkaline phosphatase via a luminescent assay. [Related pubchem assays (depositor defined):AID2544, AID2574]; type: functional
[18] = A549 cell cytotoxicity, dose response, cytotoxicity control, plate reader, cherry-pick, antagonist series (AID 743412); type: functional, cell-based
[19] = LGR2 antagonists, dose response, cell-based, HEK293, CRE-luciferase reporter, cherry pick, set 2 (AID 743343); type: functional;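 also: transfected cells were stimulated with diluted bursicon conditioned medium after compound addition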
[20] = HepG2 cell cytotoxicity, dose response, cytotoxicity control, plate reader, cherry-pick, antagonist series (AID 743416); type: functional, cell-based
[21] = HEK293 cell cytotoxicity, dose response, cytotoxicity control, plate reader, cherry-picked samples (AID 743446); type: functional, cell-based
[22] = target: Neurotensin receptor type 1 (Homo sapiens, UniProt P30989); type: functional;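 also: Image-based confirmatory dose-response assay measuring agonist activity at NTR1; NTR1-expressing U2OS osteosarcoma cells imaged for beta-arrestin GFP spot formation; agonist potency where compounds increase beta-arrestin recruitment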
[23] = target: T4, Cytochrome P450 3A4 (Homo sapiens, UniProt P08684); conditions: Potency;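 also: confirmatory qHTS run detecting inhibitors and substrates of CYP3A4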
[24] = target: T4, Cytochrome P450 3A4; conditions: read-out: Potency
[25] = target: Melanin-concentrating hormone receptor 1 (Homo sapiens, UniProt Q99705); experiment: Fluorescence-based counterscreen for antagonists of the G-protein coupled receptor 7 (GPR7): cell-based high throughput dose response assay to identify antagonists of the melanin-concentrating hormone receptor 1 (MCHR1).; type: functional
[26] = target: T5, Voltage-dependent T-type calcium channel subunit alpha-1H (Homo sapiens, UniProt O95180); type: functional
[27] = target: T5, Voltage-dependent T-type calcium channel subunit alpha-1H; experiment: Inhibitors of T-Type Calcium Channels. [Related pubchem assays (depositor defined):AID449739, AID463087, AID489005, AID493041, AID504579, AID504584, AID504619, AID504628]; type: functional
[28] = inhibitors of intracellular T. cruzi replication, confirmation, NIH3T3 host cells, beta-gal luminescence (AID 2044); type: functional, cell-based;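 also: intracellular parasites grown in NIH/3T3 mouse fibroblasts as host cells; luminescent beta-galactosidase reporter signal from transgenic T. cruzi replicating inside host cells; inhibitors lower the luminescence signal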
[29] = tested on: H4; experiment: Luminescence Cell-Based Dose Response HTS to Identify Activators of 5'UTR Stem-Loop Driven Prion Protein mRNA Translation in H4 Neuroglioblastoma Cells. [Related pubchem assays: 1829 (Project Summary), 1814 (Primary HTS)]; type: functional; conditions: Homo sapiens
[30] = Luminescence Cell-Based Dose Response HTS to Identify Activators of Luciferase Translation or Activity in H4 […] Cells. [Related pubchem assays: 1829 (Project Summary), 1814 (Primary HTS)]; type: functional
[31] = target: CAAX prenyl protease 2 (Saccharomyces cerevisiae S288c, UniProt Q03530); type: biochemical
[32] = Luminescence Cell-Based Dose Confirmation HTS to Identify Activators of 5'UTR Stem-Loop Driven Alpha-Synuclein mRNA Translation in H4 Neuroglioblastoma Cells. [Related pubchem assays: 1829 (Project Summary), 1814 (Primary HTS)]; type: functional
[33] = cytotoxicity toward NIH3T3 fibroblasts, dose response, counter-screen, cell-based, ATP luminescence, mouse fibroblasts (AID 2010); type: functional;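 also: cells exposed to compound for about 90 hours before reading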
[34] = target: T6, Ubiquitin-conjugating enzyme E2 N (Homo sapiens, UniProt P61088); type: functional
T6 sequence (P61088 whole entry): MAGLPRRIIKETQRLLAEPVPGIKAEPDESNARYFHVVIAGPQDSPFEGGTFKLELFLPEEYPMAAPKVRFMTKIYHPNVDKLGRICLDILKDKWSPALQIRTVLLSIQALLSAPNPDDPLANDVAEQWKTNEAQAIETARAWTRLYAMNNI

[35] = target: Large T antigen (Simian virus 40, UniProt P03070); type: functional, Betapolyomavirus macacae;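 also: Confirmatory-stage PubChem screen for compounds that inhibit SV40 T antigen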
[36] = target: Cysteine protease ATG4B (Homo sapiens, UniProt Q9Y4P1); type: functional;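 also: Fluorescence-based dose-response confirmation assay measuring inhibition of ATG4B activity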
[37] = target: Phospholipase A2 (Homo sapiens, UniProt P04054); type: functional;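 also: confirmatory dose-response counterscreen on phospholipase A2, testing hits that came from an ultra-high-throughput screen for ATG4B inhibitors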
[38] = target: Beta-galactosidase (Escherichia coli, UniProt Q8VNN2); experiment: beta-galactosidase enzyme inhibitors and activators, dose response, artefact control for CCR6 antagonist project, biochemical, E. coli enzyme, set 3 (AID 504712); type: functional
[39] = target: T7, Hexokinase HKDC1 (Homo sapiens, UniProt Q2TB90); experiment: HKDC1 hexokinase inhibitors, dose response, biochemical, W721R variant (AID 504729); type: functional
T7 sequence (Q2TB90 whole entry): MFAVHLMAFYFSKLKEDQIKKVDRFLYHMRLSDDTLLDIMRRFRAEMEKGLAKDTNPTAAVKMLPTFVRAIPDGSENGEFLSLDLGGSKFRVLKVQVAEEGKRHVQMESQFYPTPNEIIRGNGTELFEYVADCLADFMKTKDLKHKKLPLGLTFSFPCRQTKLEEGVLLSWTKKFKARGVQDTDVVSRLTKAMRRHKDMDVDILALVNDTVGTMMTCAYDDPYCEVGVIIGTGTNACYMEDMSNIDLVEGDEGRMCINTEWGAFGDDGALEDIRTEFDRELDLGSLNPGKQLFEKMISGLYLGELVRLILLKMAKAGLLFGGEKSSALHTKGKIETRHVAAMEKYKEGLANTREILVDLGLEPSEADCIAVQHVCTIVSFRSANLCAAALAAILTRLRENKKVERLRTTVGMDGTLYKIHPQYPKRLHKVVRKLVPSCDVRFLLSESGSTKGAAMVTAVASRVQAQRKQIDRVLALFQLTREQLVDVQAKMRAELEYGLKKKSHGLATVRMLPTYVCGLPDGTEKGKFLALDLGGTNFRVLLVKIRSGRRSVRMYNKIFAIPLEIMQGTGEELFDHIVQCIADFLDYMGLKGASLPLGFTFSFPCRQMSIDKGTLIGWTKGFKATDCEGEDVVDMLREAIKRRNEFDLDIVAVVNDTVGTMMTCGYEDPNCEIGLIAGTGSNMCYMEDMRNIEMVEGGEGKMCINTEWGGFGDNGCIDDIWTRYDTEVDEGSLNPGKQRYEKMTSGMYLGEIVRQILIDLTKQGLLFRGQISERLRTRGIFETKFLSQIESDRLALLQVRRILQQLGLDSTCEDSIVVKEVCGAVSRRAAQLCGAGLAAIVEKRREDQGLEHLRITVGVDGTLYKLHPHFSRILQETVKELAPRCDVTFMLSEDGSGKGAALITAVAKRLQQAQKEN

[40] = target: C-C chemokine receptor type 6 (Homo sapiens, UniProt P51684); experiment: CCR6 receptor antagonists, dose response, cell-based, luminescent beta-arrestin readout (AID 504728); type: functional
[41] = target: T6, Ubiquitin-conjugating enzyme E2 N; type: functional; remark: listed apart in the source
[42] = target: Bcl-2-related protein A1 (Mus musculus, UniProt Q07440); type: functional;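 also: confirmatory dose–response counterscreen on Bfl-1, used to check hits from a UBC13 polyubiquitin inhibitor campaign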

T4 sequence (P08684 whole entry): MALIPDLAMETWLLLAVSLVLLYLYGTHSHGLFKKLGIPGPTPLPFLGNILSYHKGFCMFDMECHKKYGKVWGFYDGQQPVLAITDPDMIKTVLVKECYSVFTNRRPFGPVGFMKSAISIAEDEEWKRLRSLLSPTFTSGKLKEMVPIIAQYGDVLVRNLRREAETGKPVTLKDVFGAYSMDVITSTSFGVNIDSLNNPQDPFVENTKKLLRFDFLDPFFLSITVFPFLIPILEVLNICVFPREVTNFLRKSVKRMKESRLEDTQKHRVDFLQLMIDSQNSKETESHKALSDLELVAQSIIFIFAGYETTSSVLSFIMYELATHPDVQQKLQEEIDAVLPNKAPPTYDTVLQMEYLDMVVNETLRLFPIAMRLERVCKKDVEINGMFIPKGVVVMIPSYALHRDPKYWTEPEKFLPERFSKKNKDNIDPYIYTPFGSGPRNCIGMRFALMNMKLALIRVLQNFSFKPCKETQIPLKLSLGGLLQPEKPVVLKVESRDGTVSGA
T5 sequence (O95180 whole entry): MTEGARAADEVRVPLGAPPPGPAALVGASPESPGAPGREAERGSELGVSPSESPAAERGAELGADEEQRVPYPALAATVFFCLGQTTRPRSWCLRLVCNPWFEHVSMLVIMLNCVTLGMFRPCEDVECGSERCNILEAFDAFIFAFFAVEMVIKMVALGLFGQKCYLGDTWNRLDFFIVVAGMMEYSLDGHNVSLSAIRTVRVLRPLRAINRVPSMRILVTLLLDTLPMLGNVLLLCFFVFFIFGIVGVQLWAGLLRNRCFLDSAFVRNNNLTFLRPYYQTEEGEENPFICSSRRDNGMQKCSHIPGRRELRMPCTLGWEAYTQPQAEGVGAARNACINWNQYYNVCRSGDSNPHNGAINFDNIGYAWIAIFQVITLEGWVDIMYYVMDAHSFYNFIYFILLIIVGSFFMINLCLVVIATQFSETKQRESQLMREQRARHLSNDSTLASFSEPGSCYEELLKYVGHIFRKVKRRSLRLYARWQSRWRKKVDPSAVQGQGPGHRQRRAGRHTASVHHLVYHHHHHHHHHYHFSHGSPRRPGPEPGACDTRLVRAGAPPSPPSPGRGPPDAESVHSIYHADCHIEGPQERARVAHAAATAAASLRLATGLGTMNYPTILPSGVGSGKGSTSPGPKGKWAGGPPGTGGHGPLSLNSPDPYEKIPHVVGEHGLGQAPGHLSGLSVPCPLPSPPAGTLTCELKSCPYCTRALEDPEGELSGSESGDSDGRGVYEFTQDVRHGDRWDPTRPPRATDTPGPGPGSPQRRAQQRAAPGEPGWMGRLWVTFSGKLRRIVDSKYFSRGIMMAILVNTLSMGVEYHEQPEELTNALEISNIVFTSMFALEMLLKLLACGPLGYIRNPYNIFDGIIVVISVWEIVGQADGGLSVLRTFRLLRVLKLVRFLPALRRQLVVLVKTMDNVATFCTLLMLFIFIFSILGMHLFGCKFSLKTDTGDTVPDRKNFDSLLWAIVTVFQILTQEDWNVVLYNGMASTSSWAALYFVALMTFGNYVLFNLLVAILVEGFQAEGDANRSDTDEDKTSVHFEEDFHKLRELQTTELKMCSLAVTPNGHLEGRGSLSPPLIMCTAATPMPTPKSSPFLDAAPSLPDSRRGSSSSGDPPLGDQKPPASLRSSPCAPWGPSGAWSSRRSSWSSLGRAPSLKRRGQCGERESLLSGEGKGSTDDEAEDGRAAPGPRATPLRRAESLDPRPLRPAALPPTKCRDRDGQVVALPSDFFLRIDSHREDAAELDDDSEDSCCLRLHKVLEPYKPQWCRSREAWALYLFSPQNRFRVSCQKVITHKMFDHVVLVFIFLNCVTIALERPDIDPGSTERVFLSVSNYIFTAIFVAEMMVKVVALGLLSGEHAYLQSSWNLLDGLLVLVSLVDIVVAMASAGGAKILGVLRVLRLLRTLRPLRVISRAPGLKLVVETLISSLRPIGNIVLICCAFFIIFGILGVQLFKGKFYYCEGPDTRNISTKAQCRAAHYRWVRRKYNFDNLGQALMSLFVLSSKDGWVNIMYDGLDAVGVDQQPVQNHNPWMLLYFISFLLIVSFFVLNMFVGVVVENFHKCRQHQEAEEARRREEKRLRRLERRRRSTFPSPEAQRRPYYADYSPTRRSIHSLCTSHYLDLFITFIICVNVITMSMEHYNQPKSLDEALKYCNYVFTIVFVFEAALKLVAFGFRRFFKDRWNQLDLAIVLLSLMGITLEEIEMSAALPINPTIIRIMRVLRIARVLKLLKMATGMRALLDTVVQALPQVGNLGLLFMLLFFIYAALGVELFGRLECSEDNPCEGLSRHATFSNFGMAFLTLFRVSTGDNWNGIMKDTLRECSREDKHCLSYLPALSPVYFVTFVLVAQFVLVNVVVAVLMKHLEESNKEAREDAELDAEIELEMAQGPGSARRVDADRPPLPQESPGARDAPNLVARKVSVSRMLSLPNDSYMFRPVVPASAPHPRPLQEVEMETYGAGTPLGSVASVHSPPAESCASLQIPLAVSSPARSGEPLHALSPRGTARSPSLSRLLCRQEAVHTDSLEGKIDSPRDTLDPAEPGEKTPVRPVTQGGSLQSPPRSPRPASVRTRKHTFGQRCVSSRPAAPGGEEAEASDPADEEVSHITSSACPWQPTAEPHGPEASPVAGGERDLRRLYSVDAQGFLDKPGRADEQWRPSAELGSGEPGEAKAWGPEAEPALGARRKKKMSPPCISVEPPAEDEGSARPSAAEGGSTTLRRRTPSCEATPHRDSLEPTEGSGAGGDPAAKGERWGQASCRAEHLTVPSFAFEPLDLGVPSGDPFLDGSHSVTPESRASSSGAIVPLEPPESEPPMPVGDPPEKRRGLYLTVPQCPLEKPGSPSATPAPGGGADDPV
Chain of Cytochrome P450 2C9 (P11712 whole entry): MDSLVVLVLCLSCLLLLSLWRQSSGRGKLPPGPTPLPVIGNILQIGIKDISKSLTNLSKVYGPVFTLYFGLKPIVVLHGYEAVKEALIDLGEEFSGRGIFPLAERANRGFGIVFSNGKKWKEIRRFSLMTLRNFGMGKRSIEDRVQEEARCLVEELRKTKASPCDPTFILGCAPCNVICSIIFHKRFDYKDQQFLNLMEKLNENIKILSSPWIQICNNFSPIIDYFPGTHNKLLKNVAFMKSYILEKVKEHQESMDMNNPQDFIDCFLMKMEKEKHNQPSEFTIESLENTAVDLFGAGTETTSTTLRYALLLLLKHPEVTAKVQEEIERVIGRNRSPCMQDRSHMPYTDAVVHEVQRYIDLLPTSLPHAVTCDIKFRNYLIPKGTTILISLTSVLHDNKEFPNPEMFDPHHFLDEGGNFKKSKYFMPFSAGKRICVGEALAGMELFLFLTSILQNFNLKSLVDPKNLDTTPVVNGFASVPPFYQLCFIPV
Chain of Glyceraldehyde-3-phosphate dehydrogenase (P04406 whole entry): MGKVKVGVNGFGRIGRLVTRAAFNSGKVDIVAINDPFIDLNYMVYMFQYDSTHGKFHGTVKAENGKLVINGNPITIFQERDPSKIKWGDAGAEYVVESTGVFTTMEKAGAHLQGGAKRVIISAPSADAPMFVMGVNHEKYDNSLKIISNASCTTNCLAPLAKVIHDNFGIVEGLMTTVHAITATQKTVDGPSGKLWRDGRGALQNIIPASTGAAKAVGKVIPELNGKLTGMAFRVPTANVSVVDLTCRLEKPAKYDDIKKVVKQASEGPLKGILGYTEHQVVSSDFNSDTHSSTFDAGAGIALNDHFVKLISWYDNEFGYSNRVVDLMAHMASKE
Chain of Intestinal-type alkaline phosphatase (P09923 whole entry): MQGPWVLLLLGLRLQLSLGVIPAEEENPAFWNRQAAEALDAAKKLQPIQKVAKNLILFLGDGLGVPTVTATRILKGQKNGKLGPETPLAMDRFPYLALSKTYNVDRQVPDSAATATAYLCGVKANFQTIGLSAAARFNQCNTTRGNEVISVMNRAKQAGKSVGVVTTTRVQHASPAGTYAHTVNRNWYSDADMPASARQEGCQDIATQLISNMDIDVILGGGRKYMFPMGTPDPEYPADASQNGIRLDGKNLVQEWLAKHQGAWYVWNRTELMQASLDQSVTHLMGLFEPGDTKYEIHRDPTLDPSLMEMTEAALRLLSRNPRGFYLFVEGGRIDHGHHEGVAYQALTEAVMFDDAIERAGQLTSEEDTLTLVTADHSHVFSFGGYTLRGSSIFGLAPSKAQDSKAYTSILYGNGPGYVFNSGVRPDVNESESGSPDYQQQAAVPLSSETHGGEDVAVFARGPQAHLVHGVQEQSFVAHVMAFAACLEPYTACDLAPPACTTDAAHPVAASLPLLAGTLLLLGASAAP
Chain of Melanin-concentrating hormone receptor 1 (Q99705 whole entry): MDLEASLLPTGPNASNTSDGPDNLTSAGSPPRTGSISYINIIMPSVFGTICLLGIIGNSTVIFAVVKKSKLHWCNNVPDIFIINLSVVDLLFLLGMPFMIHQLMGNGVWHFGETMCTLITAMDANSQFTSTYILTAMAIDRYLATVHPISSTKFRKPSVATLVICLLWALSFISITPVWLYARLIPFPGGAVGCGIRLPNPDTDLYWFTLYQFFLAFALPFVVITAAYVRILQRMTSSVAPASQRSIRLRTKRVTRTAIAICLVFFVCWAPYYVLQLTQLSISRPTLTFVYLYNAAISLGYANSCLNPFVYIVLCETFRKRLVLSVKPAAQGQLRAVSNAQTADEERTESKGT
Chain of Phospholipase A2 (P04054 whole entry): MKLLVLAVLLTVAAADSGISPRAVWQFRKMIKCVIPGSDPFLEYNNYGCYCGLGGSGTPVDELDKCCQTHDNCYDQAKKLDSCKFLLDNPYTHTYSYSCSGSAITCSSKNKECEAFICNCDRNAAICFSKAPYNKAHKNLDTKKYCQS

O=C(CCn1sc2ccccc2c1=O)Nc1ccccc1
IC50 [1]: 19.8 µM (active)

Cc1ccc(C(=O)c2no[n+]([O-])c2C(=O)c2ccc(C)cc2)cc1
AC50 [2]: 2.37 µM (active)
IC50 [3]: > 100 µM (active)
EC50 [4]: 3.01 µM (active)
EC50 [5]: 2.92 µM (active)
AC50 [6]: 16.7 µM (active)

COc1cc(C=NNC(=O)c2ccc(O)cc2)ccc1OCC(=O)Nc1cccc([N+](=O)[O-])c1
IC50 [7]: > 100 µM (inactive)
IC50 [8]: > 100 µM (inactive)

COc1cccc(-c2cc(=O)c3cc(O)ccc3o2)c1
AC50 [9]: 25.1 µM (inconclusive)

Cc1cc(O)nc(SCC(=O)c2ccc(O)c(O)c2)n1
IC50 [10]: 1.49 µM (active)
IC50 [11]: > 59.6 µM (not active)

CCOC(=O)C1Nc2c(O)cccc2C2C=CCC12 (stereo not drawn)
IC50 [12]: > 100 µM (inactive)
IC50 [13]: > 100 µM (not active)
IC50 [14]: > 100 µM (not active)
IC50 [15]: > 100 µM (inactive)

Cc1ccc(NCc2ccc([N+](=O)[O-])s2)cc1
AC50 [16]: > 195 µM (inactive)
IC50 [17]: > 100 µM (inactive)

O=C(Nc1ccc(N2CCN(C(=O)c3ccccc3)CC2)cc1)c1cc2ccccc2o1
AC50 [18]: 45.5 µM (active)
AC50 [19]: 5.93 µM (active)
AC50 [20]: 5.12 µM (active)
AC50 [21]: 16.8 µM (active)
EC50 [22]: 24.4 µM (inactive)

O=c1cccc2n1C[C@H]1CNC[C@H]2C1
AC50 [23]: 31.6 µM (inconclusive)
AC50 [24]: 31.6 µM (inconclusive)

Cc1ccccc1CC1(CO)CCCN(C(=O)c2cc(Cl)ccc2F)C1 (stereo not drawn)
IC50 [25]: > 14.6 µM (not active)

Cc1cccc(NC(=O)C23CCC(C)(C2Br)C3(C)C)c1 (stereo not drawn)
EC50 [26]: 2.64 µM (active)
EC50 [27]: 5.25 µM (active)

Cc1ccc2c(c1)sc[n+]2Cc1ccccc1
EC50 [28]: 1.87 µM (active)
EC50 [29]: 68.9 µM (inconclusive)
EC50 [30]: 46.1 µM (active)
AC50 [31]: 18.6 µM (active)
EC50 [32]: 11.9 µM (active)
EC50 [33]: > 60 µM (not active)

CCCCC(CC)CNC(=N)NC(=N)NCCCCCCNC(=N)NC(=N)NCC(CC)CCCC (stereo not drawn) [ALEXIDINE HYDROCHLORIDE]
IC50 [34]: 1.98 µM (active)
AC50 [2]: 4.05 µM (active)
IC50 [35]: 29.1 µM (active)
IC50 [36]: 3.89 µM (active)
IC50 [37]: 9.51 µM (active)
IC50 [38]: > 66.6 µM (inactive)
IC50 [39]: 14.2 µM (active)
IC50 [40]: 25.9 µM (inactive)
IC50 [41]: 1.73 µM (active)
IC50 [42]: 5.95 µM (active)
